# Measured values reported in US20190231751A1, “TREATMENT OF FIBROTIC DISORDERS WITH JUN N-TERMINAL KINASE INHIBITORS” (Imago Pharmaceuticals, Inc., priority 2016, published 2019).
# pIC50: −log10 of the molar value.
# Legend:
# CTGF mRNA = experiment: TGF-β1-induced CTGF mRNA expression in HFL-1 cells; format: cell-based, human; conditions: compound 30 min before TGF-β1 1 ng/ml for 4 hours
# Procedure: HFL-1 cells are created as described above in Example 3. HFL-1 cells are cultured with 0.1% DMSO (control vehicle), IGP001 or IGP002 for 30 min before stimulation with TGF-β1 (1 ng/ml) for 4 hours. Total RNA is extracted and hybridized with human CTGF probes, and messenger RNA levels are quantified by densitometry and optical density of CTGF mRNA band was corrected for G3PDH, and results are expressed as ratio (%) of control value (TGF-β1-stimulated HFL-1 cells).
# JNK2 = JNK2 (Homo sapiens, UniProt P45984); experiment: In vitro JNK2 inhibition (Table 1); format: biochemical
# Procedure: (§1) In vitro assays for the determination of JNK activities are known in the art and exemplary assay formats are described herein.
# (§2) IC50 values in Table 1 were determined using the procedures as described in U.S. Pat. No. 8,450,353.
# [1] = test system: bleomycin-induced lung fibrosis; experiment: Mouse bleomycin-induced lung fibrosis model, therapeutic study; format: in vivo; conditions: 30 mg/kg b.i.d. oral gavage starting 7 days after bleomycin; male and female mice; 14 days
# Procedure: Age and gender-matched wild type mice on the C57BL/6 background were utilized for this study, as outlined in Table 3: Mice were housed in a sterile barrier facility and given a single inhaled dose of 1.25 Units/kg pharmacologic grade bleomycin (Teva Pharmaceuticals, Israel) in a volume of 50 μl. Mice received twice daily administered IGP001, via oral gavage, on a b.i.d. schedule starting 7 days after bleomycin treatment in this therapeutic study. Mice were sacrificed at 14 days following the administration of bleomycin and assessed as appropriate for deposited collagen in the lungs using Masson's Trichrome stain.
# [2] = test system: transgenic SREBP-1c model of NASH; experiment: Transgenic SREBP-1c model of NASH; format: in vivo, mice; conditions: 10 mg/kg/day p.o.
# Procedure: The ability of IGP001 and IGP002 are tested in the transgenic SREBP-1c model of NASH. SREBP-1c is a lipogenic transcription factor, and overexpression creates a model of congenital lipodystrophy in which severe insulin resistance and diabetes develop secondary to impaired adipose differentiation (Shimomura I et al., Genes Dev 1998; 12: 3182-3194). In these mice, decreased fat tissue with lipid accumulation in the liver is observed, and marked hepatic steatosis occurs by […] of age. When fed a standard diet, steatosis, lobular inflammation, and perivenular and pericellular fibrosis develop at 20 weeks (Nakayama H, et al., Metabolism 2007; 56: 470-475; Takahashi Y, World J Gastroenterol. 2012 May 21; 18(19): 2300-2308).
# JNK3 = JNK3 (Homo sapiens, UniProt P53779); experiment: In vitro JNK3 inhibition (Table 1); format: biochemical
# Procedure: as §1, §2
# [3] = test system: thioacetamide-induced liver fibrosis; experiment: Thioacetamide-induced rat model of liver fibrosis; format: in vivo; conditions: 10 mg/kg/day p.o.
# Procedure: The antifibrotic effects of IGP001 and IGP002 are also evaluated in a thioacetamide-induced rat model of liver fibrosis. Study assessments include body and liver/kidney weight, liver function test, liver/kidney morphology and collagen deposition, fibrogenic gene and protein expression, and pharmacokinetic analyses.
# [4] = test system: c-Jun phosphorylation at serine 63; experiment: ELISA of c-Jun phosphorylation in PBMC of treated rats; format: in vivo, rat; conditions: 10 and 30 mg/kg; kainic acid treated rats
# Procedure: Blood from the animals treated with kainic acid as per Example 1 above was processed for the characterization of peripheral blood mononuclear cells (PBMC) from the treated animals. Briefly, the final blood samples from the exsanguinated rats were immediately centrifuged at 3,000 g for 10 minutes at 4° C. The plasma in upper layer was removed, and the remaining portion used for the isolation of the PBMC.
# The buffy coat of PBMCs at the erythrocyte-plasma interface and the top red cell layer were collected into a 15 mL falcon tube containing 3 ml chilled PBS. The sample was resuspended and transferred to other 15 mL falcon tubes containing 6 ml Ficoll-Paque plus density gradient, and centrifuged at 18° C. for 10 minutes at 800 g. […] The middle ‘cloudy’ interface layer between plasma and Ficoll containing the PBMCs was transferred to a 15 mL tube, washed with 10 mL of cold PBS (4° C., 1×PBS), and centrifuged for 5 min at 4° C. at 1000 g. The supernatant was discarded.
# The isolated PBMC were subjected to an ELISA assay using a kit for the detection of c-Jun phosphorylation at serine 63. Detection of phospho-Jun was carried out for the PMBCs of each kainic acid administered rat group: those receiving IGP001 in vehicle, those receiving IGP002 in vehicle, or those receiving vehicle alone.
# [5] = test system: bleomycin-induced lung fibrosis; experiment: Mouse bleomycin-induced lung fibrosis model, preventative study; format: in vivo; conditions: 10 mg/kg and 30 mg/kg b.i.d. oral gavage starting prior to bleomycin; 14 days
# Procedure: Age and gender-matched wild type mice on the C57BL/6 background were utilized for this study, which is outlined in Table 1: Mice are housed in a sterile barrier facility at the Yale University School of Medicine and all proposed procedures are approved on existing mouse protocols. Mice were given a single inhaled dose of 1.25 Units/kg pharmacologic grade bleomycin (Teva Pharmaceuticals, Israel) in a volume of 50 μl. Mice received twice daily administered IGP001, via oral gavage, on a b.i.d. schedule starting prior to bleomycin treatment in this preventative study. Mice were sacrificed at 14 days following the administration of bleomycin and assessed as appropriate for the outcomes shown in Table 2: Briefly, lung inflammation was assessed by Bronchoalveolar lavage cell counts. Total soluble lung collagen will be quantified using Sircol Assay (Biocolour, Ireland). Formalin fixed, paraffin embedded mouse lung sections were stained with hematoxylin and eosin to assess gross morphology, morphometry, and Ashcroft scores and with Masson's trichrome stains to visualize collagen deposition.
# [6] = test system: monocyte/macrophage recruitment; experiment: Monocyte/macrophage recruitment in vivo (Example 9); conditions: 10 mg/kg/day p.o.; model not specified
# JNK1 = JNK1 (Homo sapiens, UniProt P45983); experiment: In vitro JNK1 inhibition (Table 1); format: biochemical
# Procedure: as §1, §2
# Sequence of JNK3 (P53779 whole entry, species assumed): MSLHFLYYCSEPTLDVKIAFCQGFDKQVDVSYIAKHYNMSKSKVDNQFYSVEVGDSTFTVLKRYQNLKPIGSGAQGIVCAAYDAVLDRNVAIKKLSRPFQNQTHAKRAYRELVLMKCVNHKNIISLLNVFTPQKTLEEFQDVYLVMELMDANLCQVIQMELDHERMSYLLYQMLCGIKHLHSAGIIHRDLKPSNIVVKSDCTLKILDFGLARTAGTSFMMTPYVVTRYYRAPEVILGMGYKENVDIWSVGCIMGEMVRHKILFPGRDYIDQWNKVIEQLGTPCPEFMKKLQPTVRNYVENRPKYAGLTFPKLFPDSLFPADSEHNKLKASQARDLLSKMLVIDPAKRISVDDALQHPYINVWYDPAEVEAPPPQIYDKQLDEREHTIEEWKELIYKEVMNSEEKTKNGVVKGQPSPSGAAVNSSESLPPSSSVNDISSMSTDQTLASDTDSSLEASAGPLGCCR
# Sequence of JNK2 (P45984 whole entry, species assumed): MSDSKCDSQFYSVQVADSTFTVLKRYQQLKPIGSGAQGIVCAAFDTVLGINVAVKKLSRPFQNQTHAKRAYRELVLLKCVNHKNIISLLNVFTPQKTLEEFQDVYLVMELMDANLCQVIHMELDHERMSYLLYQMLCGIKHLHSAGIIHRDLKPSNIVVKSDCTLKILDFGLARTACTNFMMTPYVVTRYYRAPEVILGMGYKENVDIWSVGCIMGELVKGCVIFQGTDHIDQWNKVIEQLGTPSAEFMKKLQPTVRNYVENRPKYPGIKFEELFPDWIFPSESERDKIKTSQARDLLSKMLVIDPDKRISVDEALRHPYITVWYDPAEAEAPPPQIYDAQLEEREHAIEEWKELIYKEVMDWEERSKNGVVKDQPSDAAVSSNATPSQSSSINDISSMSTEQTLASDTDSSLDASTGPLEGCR
# Sequence of JNK1 (P45983 whole entry, species assumed): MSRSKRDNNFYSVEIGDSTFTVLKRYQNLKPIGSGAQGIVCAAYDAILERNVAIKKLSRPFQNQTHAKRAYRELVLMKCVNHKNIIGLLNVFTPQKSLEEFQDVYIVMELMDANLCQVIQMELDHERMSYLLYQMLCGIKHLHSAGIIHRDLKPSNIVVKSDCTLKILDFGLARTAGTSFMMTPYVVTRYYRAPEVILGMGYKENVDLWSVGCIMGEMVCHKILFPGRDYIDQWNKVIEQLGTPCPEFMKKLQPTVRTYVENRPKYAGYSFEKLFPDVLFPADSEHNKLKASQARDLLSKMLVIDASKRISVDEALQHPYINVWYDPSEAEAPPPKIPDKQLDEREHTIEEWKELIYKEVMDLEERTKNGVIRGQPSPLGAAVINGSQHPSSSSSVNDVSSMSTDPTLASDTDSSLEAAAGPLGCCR
structure (smiles),measurement,setting,value
"O=C(Cn1c(=O)ccc2cc(C(F)(F)F)ccc21)Nc1scc(Br)c1-c1nnc[nH]1 [IGP001, N-(4-bromo-3-(1H-1,2,4-triazol-5-yl)thiophen-2-yl)-2-(2-oxo-6-(trifluoromethyl)quinolin-1(2H)-yl)acetamide]",CTGF mRNA expression,CTGF mRNA,suppressed CTGF mRNA expression by HFL-1 cells stimulated with TGF-β1 in a dose-dependent fashion
same,pIC50,JNK2,> 7.00
same,deposited collagen in the lungs (Masson's Trichrome stain),[1],significantly reduced deposited collagen
same,collagen deposition,[2],significant reductions in collagen deposition
same,collagen type 1 protein and mRNA expression,[2],"significant reductions in collagen deposition, and collagen type 1 protein and mRNA expression"
same,pIC50,JNK3,> 7.00
same,non-alcoholic fatty liver disease activity score,[3]; thioacetamide-induced NASH model,significantly reduce the non-alcoholic fatty liver disease activity score
same,collagen deposition,[3]; thioacetamide-induced model,significant reductions in collagen deposition
same,collagen type 1 protein and mRNA expression,[3]; thioacetamide-induced model,"significant reductions in collagen deposition, and collagen type 1 protein and mRNA expression"
same,c-Jun phosphorylation in PBMC,[4],decrease in c-Jun phosphorylation
same,deposited collagen (Masson's trichrome stain),[5],reduced deposited collagen
same,monocyte/macrophage recruitment in vivo,[6],significantly reduce monocyte/macrophage recruitment
same,pIC50,JNK1,> 7.00
